Entries after “also recorded” stand apart in the source; their conditions may differ.
Columns and labels:
[1] = Phenolic pKa and phenol/phenolate absorbance of fluorophores; assay type: physicochemical; details: for pKa: phenolic proton of free fluorophore
Procedure: The pKa of DFHBI was calculated using the presence of the distinct phenol and phenolate absorbance peaks. […] This dramatic reduction in […] would ensure that a majority of fluorophore molecules would now be in the phenolate form at physiological pH.

[2] = Fluorescence of aptamer-DFHBI complexes; assay type: biochemical; details: unchanged between unbound and bound fluorophore
Description: The addition of the fluoro groups appeared to cause a slight blue shift in the fluorescence with excitation and emission maxima at 460 nm and 500 nm, respectively (FIG. 12A). […] Thus, further characterization was only carried out on these two brightest clones. […] This increased brightness derived mainly from an increase in the quantum yield from 0.08 for DMHBI-RNA complexes to over 0.6 for DFHBI-RNA complexes. The extinction coefficient for DFHBI remained unchanged between unbound and bound fluorophore: 26,000 M^−1cm^−1.
Equimolar solutions of 24-1-DFHBI complex and eGFP were prepared to measure their relative fluorescence intensity. […] Mg^2+ ion requirement, on the other hand, is much greater for 24-1 and 24-2 than for 13-2 (FIG. 12D). Both 24-1 and 24-2 are optimally fluorescent at 25 mM MgCl2 with only a subtle decrease when the concentration is dropped to 5 mM (the concentration used for SELEX). However, dropping MgCl2 concentration from 5 mM to a more physiological concentration of 0.5 mM results in a 50% drop in fluorescence for both aptamers. Further decreasing the MgCl2 concentration completely abolishes 24-1 fluorescence at ˜0.01 mM, while 24-2 levels out at ˜45% intensity at 0.01 mM MgCl2.

[3] = Fluorescence of free fluorophore (ethanol glass, glycerol viscosity); assay type: physicochemical
Description: In GFP, the chromophore is held inside the protein β-barrel structure and rigidified by direct interactions with over a dozen amino acid residues (FIG. 1C). This inflexible positioning of the chromophore by the protein is the reason for its large fluorescent quantum yield. Similarly, the synthetic GFP chromophores 4-hydroxybenzilidene-1,2-dimethyl-imidazol-5-one (“HBDI”) is capable of bright fluorescence only when rigidified by solidified solvents (Niwa et al., “Chemical Nature of the Light Emitter of the Aequorea Green Fluorescent Protein,” Proc. Nat'l Acad. Sci. USA 93:13617-13622 (1996), which is hereby incorporated by reference in its entirety). […] As an initial experiment DMHBI was first dissolved in ethanol and frozen in liquid nitrogen to create an ethanol glass matrix.
To more precisely determine the effect of immobilization on DMHBI fluorescence, 10 μM DMHBI in aqueous buffer was prepared and its fluorescence spectrum was measured in increasing concentrations of glycerol. Because glycerol is known to affect the viscosity of aqueous solutions in a predictable manner, the effect of increasing viscosity on DMHBI fluorescence can be readily measured. An increase in fluorescence intensity with increasing concentrations of glycerol was observed (FIG. 2B).
This is in agreement with previously reported data of the fluorescence spectrum of synthetic GFP chromophore, which is incapable of the excited-state proton transfer reaction that is responsible for green emission spectra found in the GFP protein. […] The reason for this is that the phenolic moiety of the chromophore remains protonated at neutral pH and in the context of the original protein. Deprotonation to the phenolate results in an excitation maxima at ˜475 nm.
Additionally, DFHBI was nonfluorescent when administered to HEK 293 cells, proving its utility for methods involving live cells.

HEK 293 cells = test: Non-specific fluorescence of dyes in HEK 293 cells; assay type: cell-based; details: for non-specific fluorescence in cells: 10 μM, epifluorescent microscope
Procedure: Previous studies to utilize conditionally fluorescent RNA binding dyes had focused on triphenylmethane scaffold dyes such as malachite green. However, these studies were halted by the discovery that many of these conditionally fluorescent dyes could interact with cellular components causing the cells to nonspecifically fluoresce. To determine whether the fluorophores of the present invention would be nonspecifically fluorescent in cells, HEK 293 cells were incubated with 10 μM DMHBI and visualized using an epifluorescent microscope.

[4] = cited from earlier work; for emission maxima: literature values
aptamer 13-2 = test: Quantum yield, extinction coefficient and brightness of DMHBI alone and with aptamer 13-2; assay type: physicochemical
Procedure: Lucifer Yellow and Cascade Yellow, two fluorophores with known quantum yields, were used as standards and the relative slope changes in the curve depicting absorbance vs. total fluorescence were compared. Values were calculated for DMHBI alone and DMHBI with aptamer 13-2 to identify the underlying reason for fluorescence increase. […] Quantum yield, however, increased enormously from 0.0006 for DMHBI alone to 0.08 for the aptamer-DMHBI complex—an over 100-fold increase. Total brightness, measured as the product of extinction coefficient and quantum yield, went from 0.008 to 1.23 (150-fold). […] More importantly, the fold-increases in both quantum yield and brightness are more than sufficient for detection of the aptamer-fluorophore complex.

[5] = Dissociation constant of aptamer-DMHBI complexes by fluorescence titration; assay type: binding
Description: The first step in characterizing the interaction between fluorescence-inducing aptamers of DMHBI was to determine their binding affinities. Because binding of the RNA to DMHBI results in fluorescence, the dissociation constant (Kd) was obtained by titrating increasing amounts of DMHBI to a solution of the aptamer. To correct for any increases in DMHBI background fluorescence, measurements of DMHBI alone at the same concentrations were taken and subtracted from the binding data. These measurements were then used to extrapolate RNA-fluorophore dissociation constants. DMHBI bound to both 3-6 and 13-2 with roughly equal dissociation constants of 500 nM (FIG. 5A).

[6] = ATP-dependent fluorescent sensor from aptamer 13-2 with DMHBI; assay type: biochemical
Description: FIGS. 22A-B illustrate the design of a fluorescent ATP sensor using aptamer 13-2. FIG. 22A illustrates how aptamer 13-2 (nt 4-60 of SEQ ID NO: 3, structure from mFOLD, left) was modified by fusing it to a previously-described ATP-aptamer (see structure on right). An unstable stem was fused from the ATP aptamer to 13-2 at the stem A entry point, generating the sensor of SEQ ID NO: 62. FIG. 22B confirms that the fused aptamer construct can be used as an ATP-dependent fluorescent sensor. In the absence of ATP, there is minimal fluorescence, even in the presence of DMHBI (lower curve). However, after addition of 1 mM ATP, the fluorescence increases nearly 30-fold (upper curve).
The mutagenesis studies described in Example 8 confirmed that stem loop A of aptamer 13-2 (see FIG. 22A) could be mutated as long as a stem-forming sequence was retained. Using the same approach identified in Example 17 (for aptamer 24-1), stem-loop A was used as an entry point for introducing an ATP aptamer along with stem destabilization.

[7] = highly viscous solutions, pH 7.4

With `CC1=N/C(=C\c2cc(F)c(O)c(F)c2)C(=O)N1C` [DFHBI, 4-(3,5-difluoro-4-hydroxybenzylidene)-1,2-dimethyl-imidazol-5-one] the “absorbance maximum, phenol” value [1] was 363 nm, the “absorbance maximum, phenolate” value [1] was 420 nm and the pKa [1] was ~6. For the same molecule, the extinction coefficient [2] was 26,000 M^−1cm^−1, the “fluorescence in ethanol glass and at high glycerol concentrations” value [3] was “robustly fluorescent” and the “fluorescence in non-viscous solutions” value [3] was “negligible fluorescence”. The “fluorescence when administered to cells” value (HEK 293 cells) was “nonfluorescent”.

In the case of “4-hydroxybenzylidene-1-methyl-2-penta-1,3-dien-1-yl-imidazolinone [reference compound]”, the emission maxima [4] is given as 523 nm.

In the case of `CN(C)c1ccc(C(=C2C=CC(=[N+](C)C)C=C2)c2ccccc2)cc1` [malachite green, reference compound], the “non-specific fluorescence in cells” value (HEK 293 cells) is reported as “intensely fluorescent; also recorded: cells turn fluorescent”.

For `COc1cc(/C=C2\N=C(C)N(C)C2=O)cc(OC)c1O` [DMHBI, 4-(4-hydroxy-3,5-dimethoxybenzylidene)-1,2-dimethyl-imidazol-5-one], the quantum yield (aptamer 13-2; DMHBI alone) was 0.0006, the “total brightness (product of extinction coefficient and quantum yield)” value (aptamer 13-2; DMHBI alone) was 0.008 and the molar extinction coefficient (aptamer 13-2; DMHBI bound by aptamer 13-2) was 15,358 M^−1cm^−1. The quantum yield (aptamer 13-2; aptamer-DMHBI complex) was 0.08, the “total brightness (product of extinction coefficient and quantum yield)” value (aptamer 13-2; aptamer-DMHBI complex) was 1.23 and the “increase in quantum yield” value (aptamer 13-2; complex vs DMHBI alone) was “over 100 fold”. The “increase in total brightness” value (aptamer 13-2; complex vs DMHBI alone) was 150 fold, the molar extinction coefficient (aptamer 13-2; unbound DMHBI) was 13,164 M^−1cm^−1 and the fraction deprotonated ([1]; pH 8) was ~50%. For the same molecule, the fluorescence in glycerol ([3]; 10 μM in aqueous buffer, 20% glycerol) was “very limited fluorescence”, the “fluorescence in ethanol glass” value ([3]; frozen in liquid nitrogen, 77° K) was “dramatic fluorescent enhancement; also recorded: brilliantly fluorescent” and the emission peak [3, 7] was 460 nm. For the same molecule, the excitation peak [3, 7] was 400 nm, the fluorescence in ethanol ([3]; room temperature) was “nonfluorescent; also recorded: non-fluorescent” and the “non-specific fluorescence in cells” value (HEK 293 cells) was “no increase in background fluorescence; also recorded: No non-specific fluorescence”. For the same molecule, the Kd ([5]; aptamer not named, read-out: Kd of the complex (RNA-bound DMHBI)) was 500 nM and the “dissociation τ1/2” value ([5]; inferred from Kd assuming diffusion-limited association rates) was < 0.1 s.

For `CC1=N/C(=C\c2ccccc2O)C(=O)N1C` [o-HBDI, 4-(2-hydroxybenzylidene)-1,2-dimethyl-imidazol-5-one], the emission maxima [4] is listed as 605 nm and the pKa [1] is listed as ~10.

B1: sensor of SEQ ID NO: 62: aptamer 13-2 fused via modified stem A to an ATP-binding aptamer, used with DMHBI (nucleic acid)
chain: CUAUUUCUGGAGGGGCGCUACUGUGUGGGAAGAAACUGUGGCACUUCGGUGCCAGCGUAUGGGUGGUUGGGUGCGGUCGGAGAUAGCUCGAGCAAUGC
modifications: listed as RNA, further chemistry not given here
In the case of B1, the “fluorescence increase after addition of ATP” value ([6]; 1 mM ATP, DMHBI present) is reported as ~30 fold and the “molar fluorescence intensity relative to 13-2 parent aptamer” value ([6]; ATP-bound) is reported as ~20%.

B2: DsRed: bright red fluorescent protein from coral (Discosoma spp.) (protein, UniProt Q9U6Y8 1-225, looked up)
Red fluorescent protein …: MRSSKNVIKEFMRFKVRMEGTVNGHEFEIEGEGEGRPYEGHNTVKLKVTKGGPLPFAWDILSPQFQYGSKVYVKHPADIPDYKKLSFPEGFKWERVMNFEDGGVVTVTQDSSLQDGCFIYKVKFIGVNFPSDGPVMQKKTMGWEASTERLYPRDGVLKGEIHKALKLKDGGHYLVEFKSIYMAKKPVQLPGYYYVDSKLDITSHNEDYTIVEQYERTEGRHHLFL
For B2, the excitation maxima ([4]; literature value) is listed as 558 nm and the emission maxima [4] is listed as 583 nm.

Reference: US10316000B2, “Coupled recognition/detection system for in vivo and in vitro use” (Cornell University, priority 2009, dated 2019)
